Source: ChEMBL document CHEMBL6096717, “Novel 3-Pyrrolidineindole Derivatives as Serotonergic Psychedelic Agents for Treating Psychosis and Mental Illnesses Such as Depression and Post-Traumatic Stress Disorder” (ACS Med Chem Lett, 2025)
pIC50: −log10 of the molar value.

Target: 5-hydroxytryptamine receptor 2A (Homo sapiens, UniProt P28223)
Assay: Displacement of [3H]-ketanserin from human 5HT2A receptor incubated for 90 mins by Microbeta2 scintillation counting analysis

Chain of 5-hydroxytryptamine receptor 2A (P28223 whole entry): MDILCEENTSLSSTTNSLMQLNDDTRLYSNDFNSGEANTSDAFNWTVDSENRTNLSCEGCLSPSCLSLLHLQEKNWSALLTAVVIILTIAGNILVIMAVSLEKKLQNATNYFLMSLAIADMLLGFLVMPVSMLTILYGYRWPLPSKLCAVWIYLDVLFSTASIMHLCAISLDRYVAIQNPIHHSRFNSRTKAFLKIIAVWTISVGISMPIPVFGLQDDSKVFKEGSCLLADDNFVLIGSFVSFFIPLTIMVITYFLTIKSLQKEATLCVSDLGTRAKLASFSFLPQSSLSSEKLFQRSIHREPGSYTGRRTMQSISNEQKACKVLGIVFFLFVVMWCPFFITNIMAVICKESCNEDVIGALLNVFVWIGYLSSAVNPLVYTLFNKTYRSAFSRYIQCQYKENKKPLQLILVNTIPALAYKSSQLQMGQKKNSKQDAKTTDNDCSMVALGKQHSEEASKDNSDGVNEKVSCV

With `[2H]C([2H])(c1c[nH]c2cccc(O)c12)[C@H]1CCCN1C([2H])([2H])[2H]` the pIC50 was over 6.30.
`[2H]C([2H])(c1c[nH]c2cccc(OC(=O)CCCCCCC/C=C\C/C=C\CCCC)c12)[C@H]1CCCN1C([2H])([2H])[2H]` showed a pIC50 of over 6.30.
`[2H]C([2H])(c1c[nH]c2cccc(Cl)c12)[C@H]1CCCN1C([2H])([2H])[2H]` showed a pIC50 of over 6.30.
In the case of `[2H]C([2H])([2H])N1CCC[C@@H]1Cc1c[nH]c2cccc(F)c12`, the pIC50 was over 6.30.
With `[2H]C([2H])([2H])N1CCC[C@@H]1Cc1c[nH]c2cccc(OC(=O)CCCCCCC/C=C\C/C=C\CCCC)c12` the pIC50 was over 6.30.
In the case of `[2H]C([2H])([2H])N1CCC[C@@H]1Cc1c[nH]c2cccc(O)c12`, the pIC50 was over 6.30.
